Reference: ChEMBL document CHEMBL1154877, “An expeditious synthesis and anticancer activity of novel 4-(3'-indolyl)oxazoles” (Eur J Med Chem, 2010)

Tests used:
Assay type in all cases: functional, cell-based
[1] = Cytotoxicity against human MDA231 cells after 48 hrs by MTT assay; details: MDA-MB-231, 48 h
MIA PaCa-2 = experiment: Cytotoxicity against human MIAPaCa2 cells after 48 hrs by MTT assay; details: MIA PaCa-2, 48 h
DU-145 = experiment: Cytotoxicity against human DU145 cells after 48 hrs by MTT assay; details: DU-145, 48 h
MCF7 = experiment: Cytotoxicity against human MCF7 cells after 48 hrs by MTT assay; details: MCF7, 48 h
PC-3 = experiment: Cytotoxicity against human PC3 cells after 48 hrs by MTT assay; details: PC-3, 48 h
LNCaP = experiment: Cytotoxicity against human LNCAP cells after 48 hrs by MTT assay

Row | Compound | IC50 [1] [µM] | IC50 (MIA PaCa-2) [µM] | IC50 (DU-145) [µM] | IC50 (MCF7) [µM] | IC50 (PC-3) [µM] | IC50 (LNCaP) [µM]
1 | c1ccc2c(-c3coc(-c4ccncc4)n3)c[nH]c2c1 | 105 | 38.4 | 178 | 54.9 | 298 | 238
2 | c1ccc2c(-c3coc(C4CCNCC4)n3)c[nH]c2c1 | 528 | 230 | 381 | 294 | 407 | 476
3 | Fc1ccc(-c2nc(-c3c[nH]c4ccccc34)co2)cc1 | 90.4 | 40.6 | 31.8 | 28 | 42.8 | 59.8
4 | COc1ccc(-c2nc(-c3c[nH]c4ccccc34)co2)cc1OC | 1000 | 1000 | 300 | 759 | 359 | 278
5 | C(=C\c1nc(-c2c[nH]c3ccccc23)co1)/c1ccccc1 | 1000 | 872 | 135 | 355 | 221 | 183
6 | Oc1ccc(-c2nc(-c3c[nH]c4ccccc34)co2)cc1 | 1000 | 1000 | 247 | 580 | 382 | 449
7 | Cn1cc(-c2coc(-c3ccc(Cl)cc3)n2)c2ccccc21 | 790 | 89.2 | 412 | 637 | 302 | 378
8 | c1ccc(Cc2nc(-c3c[nH]c4ccccc34)co2)cc1 | 1000 | 1000 | 349 | 1000 | 368 | 377
9 | Cn1cc(-c2coc(C3CCNCC3)n2)c2ccccc21 | 1000 | 759 | 376 | 1000 | 578 | 400
10 | c1ccc2c(-c3cocn3)c[nH]c2c1 | 1000 | 1000 | 93.5 | 1000 | 321 | 382
11 | Clc1ccc(Cn2cc(-c3coc(-c4ccc(Cl)cc4)n3)c3ccccc32)cc1 | 216 | 26 | 80.5 | 14.1 | 350 | 182
12 | C=Cc1nc(-c2c[nH]c3ccccc23)co1 | 1000 | 37.6 | 59.8 | 1000 | 426 | 530
13 | COc1cc(-c2nc(-c3c[nH]c4ccccc34)co2)ccc1O | 1000 | 1000 | 175 | 1000 | 303 | 445
14 | c1ccc(-c2nc(-c3c[nH]c4ccccc34)co2)cc1 | 171 | 113 | 167 | 131 | 170 | 461
15 | COc1ccc(-c2nc(-c3c[nH]c4ccccc34)co2)cc1 | 108 | 35 | 164 | 43.8 | 133 | 507
16 | COc1cc(-c2nc(-c3cn(C)c4ccccc34)co2)ccc1OCc1ccccc1 | 1000 | 318 | 382 | 198 | 450 | 368
17 | Cc1nc(-c2c[nH]c3ccccc23)co1 | 1000 | 688 | 244 | 802 | 337 | 316
18 | Clc1ccc(-c2nc(-c3c[nH]c4ccccc34)co2)cc1 | 608 | 326 | 206 | 410 | 151 | 505
